From PubChem BioAssay (NCI) come the findings set out here.

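Values below derive from 48-hour exposures of cells grown in 96-well plates, with endpoints linearly interpolated between the two concentrations bracketing the appropriate inhibition level. At the TGI there is no net growth.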 Where a SMILES comes first, the peptide text is derived from it. [ ]: non-standard residue; d: D form. The star is where a group is joined. AllylGly = C=CC[CH](N)C(=O)O; Boc = CC(C)(C)OC(=O)*; OtBu = CC(C)(C)O*

Test systems include NCI-H23 lung; RPMI-8226 leukemia; NCI/ADR-RES ovarian; OVCAR-4 ovarian; MDA-MB-435; MDA-N; HCC-2998 colon; SK-MEL-28 melanoma; HT29 colon; K-562 leukemia.
Common to all, as to experiment: growth of human tumour cells (NCI), 48 h

Take `CC1(C)CC[C@]2(C)CC=C3[C@]4(C)CC[C@H]5C(C)(C)C(=O)CC[C@]5(C)[C@H]4CC[C@@]3(C)[C@H]2C1`: the TGI with NCI-H23 lung, in the assay on RPMI-8226 leukemia, in the assay on NCI/ADR-RES ovarian, with OVCAR-4 ovarian, in the assay on MDA-MB-435 and with MDA-N was more than 100 µM throughout. The TGI in the assay on HCC-2998 colon, with SK-MEL-28 melanoma and in the assay on HT29 colon was more than 100 µM each time.
Consider `COc1ccc(/C=C2\C[C@H]3[C@@H]4CCC5=C[C@@H](N6CCCC6)CC[C@]5(C)[C@H]4CC[C@]3(C)[C@H]2O)cc1`, for which the TGI with NCI-H23 lung is 16.3 µM; in the assay on RPMI-8226 leukemia, more than 29.2 µM; in the assay on NCI/ADR-RES ovarian, 16.8 µM; with OVCAR-4 ovarian, 13.9 µM; in the assay with K-562 leukemia, 11.8 µM; in the assay on MDA-MB-435, 4.47 µM. For the same molecule, the TGI with MDA-N was 3.73 µM; in the assay with HCC-2998 colon, 3.27 µM; in the assay on SK-MEL-28 melanoma it was 3.66 µM; with HT29 colon, 3.15 µM.
Consider `CCOC(=O)CCC(NC(=O)c1ccc(Oc2nc3ccc(C(F)(F)F)cc3nc2-c2ccccc2)cc1)C(=O)OCC` (configuration not stated), for which the TGI with NCI-H23 lung was more than 79.2 µM; in the assay on RPMI-8226 leukemia it was more than 100 µM; in the assay with NCI/ADR-RES ovarian it was more than 100 µM; in the assay with OVCAR-4 ovarian, more than 83 µM; in the assay on K-562 leukemia it was more than 100 µM; in the assay with MDA-MB-435, more than 100 µM. Further, the TGI in the assay on MDA-N was more than 100 µM; with HCC-2998 colon, more than 100 µM; with SK-MEL-28 melanoma, more than 100 µM; with HT29 colon it was more than 75.2 µM.
As for `O=P(Oc1ccccc1)(Oc1ccccc1)Oc1c[nH]c2ccccc12`, the TGI in the assay on NCI-H23 lung was 25.8 µM; in the assay with RPMI-8226 leukemia, 1.54 µM; with NCI/ADR-RES ovarian, 18 µM; in the assay on OVCAR-4 ovarian it was 14.5 µM; in the assay with K-562 leukemia, 36.5 µM; in the assay with MDA-MB-435, 28.3 µM. The TGI in the assay with MDA-N amounted to 24.3 µM; with HCC-2998 colon, 17.9 µM; in the assay on SK-MEL-28 melanoma it was 26.6 µM; in the assay on HT29 colon, 22 µM.
As for `C[C@H](Nc1c(O)c2c(c(O)c1Cl)C(=O)C=CC2=O)C(=O)Nc1ccc([N+](=O)[O-])cc1`, the TGI in the assay on NCI-H23 lung is 4.45 µM; in the assay with RPMI-8226 leukemia, more than 10 µM; in the assay on NCI/ADR-RES ovarian, 5.05 µM; in the assay on OVCAR-4 ovarian it was 3.14 µM; in the assay with K-562 leukemia, more than 10 µM; with MDA-MB-435, 3.04 µM. Besides, the TGI in the assay on MDA-N amounted to 6.67 µM; with HCC-2998 colon, 8.05 µM; with SK-MEL-28 melanoma, 4.02 µM; with HT29 colon, 8.57 µM.
With `O=c1[nH]c(Nc2cccc(C(F)(F)F)c2)nc2nc[nH]c12`, the TGI in the assay with RPMI-8226 leukemia, with NCI/ADR-RES ovarian, in the assay with OVCAR-4 ovarian, in the assay with K-562 leukemia, in the assay on MDA-MB-435 and in the assay on MDA-N was more than 100 µM in each case. For the same molecule, the TGI in the assay with HCC-2998 colon, in the assay on SK-MEL-28 melanoma and with HT29 colon was more than 100 µM each time.
Regarding `COC(=O)C1(Cc2ccc3c(c2)CCC3)Cc2ccc3c(c2C1O)CCC3` (configuration not stated), the TGI is 59.4 µM in the assay on RPMI-8226 leukemia; 35.9 µM in the assay on NCI/ADR-RES ovarian; 27.7 µM with OVCAR-4 ovarian; more than 100 µM in the assay on K-562 leukemia; 27.5 µM in the assay with MDA-MB-435; 29.8 µM with MDA-N. Also, the TGI with HCC-2998 colon came out at 30.9 µM; with SK-MEL-28 melanoma, 32.6 µM; with HT29 colon it was 31.6 µM.
Take `CCCCCNc1nonc1N`: the TGI in the assay with NCI-H23 lung, in the assay on RPMI-8226 leukemia, in the assay on NCI/ADR-RES ovarian, in the assay with OVCAR-4 ovarian, in the assay with K-562 leukemia and with MDA-MB-435 was more than 100 µM each time. Also, the TGI in the assay with MDA-N, in the assay with HCC-2998 colon, in the assay on SK-MEL-28 melanoma and in the assay with HT29 colon was more than 100 µM throughout.
In the case of `C=CCC(NC(=O)C(CC(=O)OC(C)(C)C)NC(=O)OC(C)(C)C)C(=O)OC` (configuration not stated) (Boc-Asp(OtBu)-[AllylGly]-OMe; configuration not given here), the TGI is more than 100 µM in the assay on NCI-H23 lung; more than 84.6 µM with RPMI-8226 leukemia; more than 100 µM in the assay on NCI/ADR-RES ovarian; more than 100 µM in the assay on OVCAR-4 ovarian; more than 100 µM in the assay with K-562 leukemia; more than 91.3 µM with MDA-MB-435. Also, the TGI is more than 79.7 µM in the assay on MDA-N, 61.3 µM in the assay on HCC-2998 colon, more than 100 µM in the assay on SK-MEL-28 melanoma and more than 100 µM in the assay with HT29 colon.
On to `Cc1cccc2c1Oc1cc(Cl)ccc1C2NC(=O)CCN1CCN(CCO)CC1` (configuration not stated), for which the TGI was determined as 51.5 µM with NCI-H23 lung; 30.9 µM in the assay with NCI/ADR-RES ovarian; 31 µM with OVCAR-4 ovarian; 40.6 µM in the assay with K-562 leukemia; 27.5 µM in the assay on MDA-MB-435; 14.6 µM in the assay with MDA-N. In addition, the figures for the TGI in the assay with HCC-2998 colon, in the assay on SK-MEL-28 melanoma and in the assay on HT29 colon were 43.7 µM, 9.93 µM and 29.8 µM, respectively.
As to `Cc1ccc(-c2c(C#N)c(S)n(NS(=O)(=O)c3ccc(C)cc3)c(=O)c2C#N)cc1`, the TGI in the assay on NCI-H23 lung was 52.3 µM; with RPMI-8226 leukemia, more than 100 µM; in the assay with NCI/ADR-RES ovarian, 77.9 µM; in the assay on OVCAR-4 ovarian it was 36.4 µM; with K-562 leukemia it was more than 100 µM; in the assay with MDA-MB-435 it was 52.8 µM. Also, the TGI with MDA-N is more than 100 µM; in the assay on HCC-2998 colon, 46.9 µM; in the assay on SK-MEL-28 melanoma it was 61.2 µM.
With `CC1=C2c3c(C)ccc4ccc(C)c(c34)C2(O)C(C)C1=O` (configuration not stated), the TGI with RPMI-8226 leukemia was more than 100 µM; in the assay with NCI/ADR-RES ovarian, 76 µM; in the assay on OVCAR-4 ovarian it was more than 100 µM; in the assay with K-562 leukemia it was more than 100 µM; in the assay on MDA-MB-435, more than 100 µM; with MDA-N, more than 100 µM. The TGI in the assay on HCC-2998 colon, in the assay with SK-MEL-28 melanoma and in the assay on HT29 colon was more than 100 µM throughout.
`O=c1cc(N2CCOCC2)[nH]c(=O)n1-c1cccc(C(F)(F)F)c1`: the TGI with NCI-H23 lung, in the assay with NCI/ADR-RES ovarian, with OVCAR-4 ovarian, with K-562 leukemia, in the assay on MDA-MB-435 and with MDA-N was more than 100 µM in each case. Besides, the TGI in the assay with HCC-2998 colon, in the assay with SK-MEL-28 melanoma and in the assay on HT29 colon was more than 100 µM throughout.
As to `CN1CN(c2ccccc2)C2(CCN(CCCSc3ccccc3NC(=O)/C=C/c3ccccc3)CC2)C1=O`, the TGI was 25.1 µM with NCI-H23 lung; 22.4 µM in the assay with NCI/ADR-RES ovarian; more than 37 µM in the assay on OVCAR-4 ovarian; 15.6 µM with K-562 leukemia; 6.91 µM with MDA-MB-435; 6.33 µM in the assay with MDA-N. Besides, the TGI stood at 20.6 µM in the assay with HCC-2998 colon, 6.09 µM in the assay on SK-MEL-28 melanoma and 5.75 µM in the assay with HT29 colon.
